{"source": "patent US20070224194A1", "about": "“Methods for Inhibiting Angiogenesis and/or Lymphangiogenesis” (LUDWIG INSTITUTE FOR CANCER RESEARCH, priority 2004, published 2007)", "key": {"[1]": {"system": "proteolytic processing of VEGF-C", "assay": "Processing of VEGF-C secreted by 293EBNA cells expressing VEGF-C-FULL-N-Myc (immunoprecipitation/Western blot)", "type": "cell-based, human", "conditions": "0, 1, 10, 50 or 100 μM, 18 hours, Western blot", "protocol": "293EBNA cells stably transfected with an expression construct encoding VEGF-C-FULL-N-Myc (full-length VEGF-C tagged with Myc at the N-terminus) or VEGF-D-FULL-N-FLAG (full-length VEGF-D tagged with FLAG at the N-terminus) secrete fully and partially processed forms of VEGF-C or VEGF-D into the culture medium (Joukov et al., EMBO J. 16:3898-3911 1997; Stacker et al., J. Biol. Chem. 274: 32127-32136, 1999). These cells were grown overnight in 24-well plates, seeded with 8×10^4 cells per well. At the time when cultures were initiated in these plates, growth medium was supplemented with Dec-RVKR-CMK (Calbiochem) (dissolved in methanol) to a final concentration of 0, 1, 10, 50 or 100 μM. Solvent control cultures were also established, in which the medium was supplemented with methanol at concentrations equal to those present in the cultures treated with inhibitor. […]\nVEGF-C species were immunoprecipitated from conditioned medium by addition of anti-VEGF-C antibody that binds the VHD and C-terminal propeptide (R&D Systems). […] The precipitated VEGF-C and VEGF-D species were then analysed by Western blot using biotinylated antibodies against the VHD and C terminus of VEGF-C, or the VHD of VEGF-D (R&D Systems) and streptavidin-horse radish peroxidase conjugate (Zymed) (FIGS. 1 and 2). […]"}, "[2]": {"system": "BaF3 cells expressing the VEGFR-2/EpoR chimeric receptor", "assay": "BaF3 bioassay, VEGFR-2/EpoR chimeric receptor, [3H]thymidine incorporation", "type": "cell-based", "conditions": "paper example in present tense", "description": "(§1) In order to test if a furin or broad-range PC inhibitor can block the biological effects of VEGF-D, mammalian cells are employed that proteolytically process VEGF-D, such as 293EBNA or Capan-1 pancreatic carcinoma cells. Derivatives of these cells harboring an expression construct for full-length VEGF-D are transfected with the shRNA construct for furin (as described here) or treated with a broad-range PC inhibitor such as decanoyl-Arg-Val-Lys-Arg-chloromethylketone (see, PCT WO 2005/112971 A1, the disclosure of which is incorporated herein by reference in its entirety). The inhibition of VEGF-D processing by these agents is confirmed by immunoprecipitation/Western blotting of the conditioned cell culture media using antibody that binds the VHD of VEGF-D. The conditioned cell culture media from cells treated with the inhibitors (and from cells in which these agents are omitted, i.e. “mock” treatments) are used for incubations with BaF3 pre-B cells expressing chimeric receptors consisting of the extracellular domains of VEGFR-2 or VEGFR-3 and the transmembrane and cytoplasmic domains of the erythropoietin receptor (EpoR) (Stacker et al., J. Biol. Chem., 274:34884-34892, 1999; Achen et al., Eur. J. Biochem., 267:2505-2515, 2000). […] The proliferation of the cells in response to the conditioned media containing VEGF-D is monitored by incorporation of [3H]thymidine into DNA. […]"}, "[3]": {"system": "BaF3 cells expressing the VEGFR-3/EpoR chimeric receptor", "assay": "BaF3 bioassay, VEGFR-3/EpoR chimeric receptor, [3H]thymidine incorporation", "type": "cell-based", "conditions": "paper example in present tense", "description": "as §1"}}, "note": "The star is where a group is joined. Decanoyl = CCCCCCCCCC(=O)*; CH2Cl = ClC*"}
{"substance": "Decanoyl-Arg-Val-Lys-Arg-chloromethylketone (Decanoyl-RVKR-CH2Cl) [Dec-RVKR-CMK]", "values": [{"measurement": "abundance of fully and partially processed forms of VEGF-C", "setting": "[1]", "value": "dramatically reduced in abundance in a dose-dependent manner"}, {"measurement": "proliferation of BaF3 VEGFR-2/EpoR cells induced by conditioned media of treated VEGF-D-expressing cells", "setting": "[2]", "value": "do not induce significant proliferation"}, {"measurement": "proliferation of BaF3 VEGFR-3/EpoR cells induced by conditioned media of treated VEGF-D-expressing cells", "setting": "[3]", "value": "do not induce significant proliferation"}]}
